Target: T1, Peroxisome proliferator-activated receptor gamma (Homo sapiens, UniProt P37231)
T1 sequence (P37231 whole entry): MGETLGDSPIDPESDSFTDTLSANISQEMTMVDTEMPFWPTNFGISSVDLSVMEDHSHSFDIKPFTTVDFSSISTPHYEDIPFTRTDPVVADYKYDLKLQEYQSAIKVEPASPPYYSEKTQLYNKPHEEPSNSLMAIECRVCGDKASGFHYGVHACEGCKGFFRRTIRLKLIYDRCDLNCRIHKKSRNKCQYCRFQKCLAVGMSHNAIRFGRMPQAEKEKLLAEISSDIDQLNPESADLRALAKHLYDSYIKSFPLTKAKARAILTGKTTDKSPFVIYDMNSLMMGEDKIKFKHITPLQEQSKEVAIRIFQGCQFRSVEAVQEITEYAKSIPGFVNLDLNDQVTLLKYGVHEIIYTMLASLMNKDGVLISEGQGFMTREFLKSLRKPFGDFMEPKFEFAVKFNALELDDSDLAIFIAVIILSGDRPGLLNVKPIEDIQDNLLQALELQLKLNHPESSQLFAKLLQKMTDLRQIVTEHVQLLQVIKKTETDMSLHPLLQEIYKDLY
Experiment: Displacement of fluormone PPAR-green from N-terminal His-tagged human PPARgamma-LBD after 2 hrs by fluorescence polarization assay

Row | IC50 | Compound
1 | 973 nM | O=C(Oc1ccc([N+](=O)[O-])cc1)c1cn(-c2ccccc2)nc1-c1ccccc1

Target: T1, Peroxisome proliferator-activated receptor gamma
Experiment: Partial agonist activity at human PPARgamma-LBD expressed in HEK293T cells assessed as induction of receptor transactivation after 24 hrs by luciferase reporter gene assay
Format: functional, cell-based, HEK-293T

Row | EC50 | Compound
2 | 2290 nM | O=C(Oc1ccc([N+](=O)[O-])cc1)c1cn(-c2ccccc2)nc1-c1ccccc1

Target: T2, Peroxisome proliferator-activated receptor gamma (Homo sapiens) (UniProt P37231)
T2 sequence (whole entry): T1 sequence (P37231 whole entry)
Experiment: Displacement of fluormone PPAR-green from N-terminal His-tagged human PPARgamma-LBD assessed as logarithm unit binding affinity value at 10 uM after 2 hrs by fluorescence polarization assay

Row | binding affinity | Compound
3 | 1.37 | COc1ccc(-c2nn(-c3ccccc3)cc2C(=O)OCC(=O)c2ccccc2Cl)cc1
4 | 1.63 | Fc1ccc(-c2nn(-c3ccccc3)cc2CNCc2ccccc2)cc1
5 | 1.57 | COc1ccc(-c2nn(-c3ccccc3)cc2C(=O)OCC(=O)c2ccc([N+](=O)[O-])cc2)cc1
6 | 1.38 | O=C(Oc1ccccc1)c1cn(-c2ccccc2)nc1-c1cccc([N+](=O)[O-])c1
7 | 1.15 | O=C(Oc1ccccc1)c1cn(-c2ccccc2)nc1-c1ccc(Cl)cc1
8 | 1.58 | CC(=O)Nc1ccc(OC(=O)c2cn(-c3ccccc3)nc2-c2ccccc2)cc1
9 | 1.85 | COc1ccc(-c2nn(-c3ccccc3)cc2C(=O)Oc2ccc(C)cc2)cc1OC
10 | 1.45 | COc1ccc(-c2nn(-c3ccccc3)cc2C(=O)Oc2ccccc2)cc1
11 | 1.38 | O=C(OCc1ccc([N+](=O)[O-])cc1)c1cn(-c2ccccc2)nc1-c1ccccc1
12 | 1.81 | COc1cc(C=O)ccc1OC(=O)c1cn(-c2ccccc2)nc1-c1ccc(C)cc1
13 | 1.35 | COc1cc(C=O)ccc1OC(=O)c1cn(-c2ccccc2)nc1-c1ccc([N+](=O)[O-])cc1
14 | 1.81 | COc1cc(C=O)ccc1OC(=O)c1cn(-c2ccccc2)nc1-c1ccc(Cl)cc1
15 | 1.26 | Cc1ccc(-c2nn(-c3ccccc3)cc2C(=O)NCC(=O)c2ccccc2)cc1
16 | 1.42 | COc1ccc(-c2nn(-c3ccccc3)cc2C(=O)OCC(=O)c2ccc(Cl)cc2)cc1
17 | 1.2 | COc1ccc(-c2nn(-c3ccccc3)cc2C(=O)OCC(=O)c2ccc(Br)cc2)cc1
18 | 1.63 | O=C(Oc1ccccc1)c1cn(-c2ccccc2)nc1-c1ccccc1
19 | 1.99 | COc1cc(C=O)ccc1OC(=O)c1cn(-c2ccccc2)nc1-c1ccccc1
20 | 1.31 | Cc1ccc(-c2nn(-c3ccccc3)cc2C(=O)Oc2ccccc2)cc1

Row | binding affinity | Compound
21 | 1.82 | COc1cc(C=O)ccc1OC(=O)c1cn(-c2ccccc2)nc1-c1ccc(F)cc1
22 | 1.15 | O=C(COC(=O)c1cn(-c2ccccc2)nc1-c1ccc(Cl)cc1)c1ccccc1
23 | 1.52 | O=C(Oc1cccc2cccnc12)c1cn(-c2ccccc2)nc1-c1ccccc1
24 | 1.98 | O=C(COC(=O)c1cn(-c2ccccc2)nc1-c1ccccc1)c1ccc(Cl)c([N+](=O)[O-])c1
25 | 1.73 | COc1cc(C=O)ccc1OC(=O)c1cn(-c2ccccc2)nc1-c1ccc(Br)cc1
26 | 1.5 | COc1cc(C=O)ccc1OC(=O)c1cn(-c2ccccc2)nc1-c1ccc(C2COCCO2)cc1 (stereo not drawn)
27 | 1.72 | CC(C)S(=O)(=O)c1ccc(COC(=O)c2cn(-c3ccccc3)nc2-c2ccccc2)cc1
28 | 1.9 | O=C(Oc1ccc([N+](=O)[O-])cc1)c1cn(-c2ccccc2)nc1-c1ccccc1
29 | 1.38 | CC(=O)c1ccc(OC(=O)c2cn(-c3ccccc3)nc2-c2ccccc2)cc1
30 | 1.68 | O=C(N/N=C/c1cn(-c2ccccc2)nc1-c1ccc(F)cc1)C(O)c1ccccc1 (stereo not drawn)
31 | 1.05 | COc1ccc(-c2nn(-c3ccccc3)cc2C(=O)OCC(=O)c2ccc(C)c([N+](=O)[O-])c2)cc1
32 | 1.82 | COc1ccc(-c2nn(-c3ccccc3)cc2C(=O)Oc2ccc(C=O)cc2OC)cc1OC
33 | 1.37 | O=C(N/N=C/c1cn(-c2ccccc2)nc1-c1ccccc1)c1ccc([N+](=O)[O-])cc1
34 | 1.36 | COc1cc(C=O)ccc1OC(=O)c1cn(-c2ccccc2)nc1-c1ccc(OC)c([N+](=O)[O-])c1
35 | 1.64 | COc1ccc(-c2nn(-c3ccccc3)cc2C(=O)Oc2ccccc2)cc1OC
36 | 1.22 | O=C(Oc1ccccc1)c1cn(-c2ccccc2)nc1-c1ccc(Br)cc1
37 | 1.55 | O=C(Oc1ccccc1)c1cn(-c2ccccc2)nc1-c1ccc(F)cc1
38 | 1.73 | S=C(NCc1ccco1)NCc1cn(-c2ccccc2)nc1-c1ccccc1
